Measurements published in paper PMC2818674 (Bioorganic & medicinal chemistry, 2009).
Blank lines part the entries; values can stand above or below the compound they belong to.

What was measured:
[1] = test system: Akt; test: Selectivity profile: Akt; type: biochemical; conditions: for IC50: read-out: Akt, IC50, selectivity profile
[2] = PAMPA permeability assay; type: in vitro ADME; conditions: pH 7.4
[3] = Plasma stability assay; type: in vitro ADME, rat; conditions: for plasma stability: after 1 h of incubation in rat plasma; for remaining at 1 h, 1 μM: rat, fresh rat plasma

- IC50 [1]: > 100 µM
SMILES: CCC(C)Nc1nnc(Sc2ncc([N+](=O)[O-])s2)s1 (stereo not drawn) [BI-98A10, N-sec-butyl-5-(5-nitrothiazol-2-ylthio)-1,3,4-thiadiazol-2-amine]

- IC50 [1]: > 100 µM
- Cell permeability, PAMPA % Flux [2]: 5.5%
- plasma stability [3]: degraded rapidly
- remaining at 1 h, 1 μM [3]: 0%
SMILES: COc1ccc(CCNc2nnc(Sc3ncc([N+](=O)[O-])s3)s2)cc1OC [BI-90H10, N-(3,4-dimethoxyphenethyl)-5-(5-nitrothiazol-2-ylthio)-1,3,4-thiadiazol-2-amine]

The remaining lines, values behind:

SMILES: CCCNc1nnc(Sc2ncc([N+](=O)[O-])s2)s1 [BI-90H6, 5-(5-nitrothiazol-2-ylthio)-N-propyl-1,3,4-thiadiazol-2-amine]
- IC50 [1]: > 100 µM
- Cell permeability, PAMPA % Flux [2]: 49.8%
- plasma stability [3]: degraded rapidly
- remaining at 1 h, 1 μM [3]: 35%

SMILES: O=[N+]([O-])c1cnc(Sc2nnc(O)n2-c2ccc3c(c2)OCCO3)s1 [BI-78D3, reference compound]
- Cell permeability, PAMPA % Flux [2]: 30%
- remaining at 1 h, 1 μM [3]: 42%

SMILES: COCCNc1nnc(Sc2ncc([N+](=O)[O-])s2)s1 [BI-90H9, N-(2-methoxyethyl)-5-(5-nitrothiazol-2-ylthio)-1,3,4-thiadiazol-2-amine]
- activity against the kinase Akt [1]: practically inactive
- IC50 [1]: > 100 µM
- Cell permeability, PAMPA % Flux [2]: 76.3%
- remaining at 1 h, 1 μM [3]: 68%
